# Key:
# [1] = target: Protein arginine N-methyltransferase 8 (Homo sapiens, UniProt Q9NR22); test: Inhibition of N-terminal His-tagged human PRMT8 (61 to 394 residues) extracted from Escherichia coli preincubated for 10 mins followed by substrate addition and measured after 3 hrs by MTase-Glo detection reagent based luminescence analysis
# [2] = target: Protein arginine N-methyltransferase 6 (Homo sapiens, UniProt Q96LA8); test: Inhibition of PRMT6 (unknown origin) preincubated for 10 mins followed by substrate addition and measured after 3 hrs by MTase-Glo detection reagent based luminescence analysis
# [3] = target: Protein arginine N-methyltransferase 3 (Homo sapiens, UniProt O60678); test: Inhibition of N-terminal His-tagged recombinant human PRMT3 (2 to 531 residues) extracted from Escherichia coli preincubated for 10 mins followed by substrate addition and measured after 3 hrs by MTase-Glo detection reagent based luminescence analysis
# [4] = target: T1, Histone-arginine methyltransferase CARM1 (Homo sapiens, UniProt Q86X55); test: Inhibition of N-terminal FLAG-tagged recombinant full length human PRMT4 extracted from baculovirus expression system preincubated for 10 mins followed by substrate addition and measured after 3 hrs by MTase-Glo detection reagent based luminescence analysis
# T1 sequence (Q86X55 whole entry): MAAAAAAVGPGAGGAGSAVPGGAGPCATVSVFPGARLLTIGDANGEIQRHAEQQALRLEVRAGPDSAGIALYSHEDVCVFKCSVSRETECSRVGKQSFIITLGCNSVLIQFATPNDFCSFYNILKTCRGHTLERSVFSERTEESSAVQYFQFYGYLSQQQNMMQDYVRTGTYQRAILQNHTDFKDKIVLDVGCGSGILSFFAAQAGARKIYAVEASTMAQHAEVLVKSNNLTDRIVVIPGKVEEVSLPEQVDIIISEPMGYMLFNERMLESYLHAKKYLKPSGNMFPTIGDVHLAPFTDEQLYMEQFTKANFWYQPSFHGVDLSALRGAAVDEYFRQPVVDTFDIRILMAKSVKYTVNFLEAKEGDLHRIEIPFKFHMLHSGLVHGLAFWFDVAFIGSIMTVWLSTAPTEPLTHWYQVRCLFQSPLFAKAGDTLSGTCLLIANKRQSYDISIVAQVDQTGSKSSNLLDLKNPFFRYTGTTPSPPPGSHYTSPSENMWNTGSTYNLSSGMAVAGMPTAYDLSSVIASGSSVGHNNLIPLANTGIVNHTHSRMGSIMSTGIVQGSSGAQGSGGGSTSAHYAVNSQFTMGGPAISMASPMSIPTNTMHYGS
# [5] = target: Protein arginine N-methyltransferase 1 (Homo sapiens, UniProt Q99873); test: Inhibition of N-terminal FLAG-tagged recombinant full length human PRMT1 extracted from baculovirus expression system preincubated for 10 mins followed by substrate addition and measured after 3 hrs by MTase-Glo detection reagent based luminescence analysis
# [6] = target: T2, Protein arginine N-methyltransferase 9 (Homo sapiens, UniProt Q6P2P2); test: Inhibition of PRMT9 (unknown origin) incubated overnight by Alphascreen microplate reader
# T2 sequence (Q6P2P2 whole entry): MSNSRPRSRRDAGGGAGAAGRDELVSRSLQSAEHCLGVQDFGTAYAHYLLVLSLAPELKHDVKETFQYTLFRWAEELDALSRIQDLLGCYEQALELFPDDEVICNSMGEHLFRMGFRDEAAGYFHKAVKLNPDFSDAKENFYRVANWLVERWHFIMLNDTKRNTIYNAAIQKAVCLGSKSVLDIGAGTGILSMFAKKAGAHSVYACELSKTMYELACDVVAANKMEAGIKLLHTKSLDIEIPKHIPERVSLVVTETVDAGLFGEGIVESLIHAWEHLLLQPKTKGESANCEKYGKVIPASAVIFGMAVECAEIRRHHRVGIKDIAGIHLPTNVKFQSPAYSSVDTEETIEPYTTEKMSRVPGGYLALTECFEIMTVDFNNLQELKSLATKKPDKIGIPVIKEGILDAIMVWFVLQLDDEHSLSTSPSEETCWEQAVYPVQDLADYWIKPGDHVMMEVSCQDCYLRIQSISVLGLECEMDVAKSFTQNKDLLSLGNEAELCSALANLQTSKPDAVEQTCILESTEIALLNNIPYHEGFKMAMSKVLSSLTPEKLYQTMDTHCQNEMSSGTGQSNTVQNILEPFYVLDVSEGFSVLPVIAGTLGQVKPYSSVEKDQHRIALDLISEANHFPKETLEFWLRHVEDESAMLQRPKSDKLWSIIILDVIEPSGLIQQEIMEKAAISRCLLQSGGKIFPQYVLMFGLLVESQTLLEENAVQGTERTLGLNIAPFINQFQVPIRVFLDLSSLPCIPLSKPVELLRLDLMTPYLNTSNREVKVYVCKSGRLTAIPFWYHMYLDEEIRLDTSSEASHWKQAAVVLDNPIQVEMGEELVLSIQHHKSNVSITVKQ
# DU-145 [7] = test: Antitumor activity against human DU-145 cells xenografted in male BALB/c nude mouse assessed as tumor growth inhibition at 20 mg/kg, ip relative to control; conditions: DU-145, read-out: TGI
# [8] = target: T3, Protein arginine N-methyltransferase 7 (Homo sapiens, UniProt Q9NVM4); test: Binding affinity to N-terminal GST-tagged recombinant full length human PRMT7 extracted from baculovirus infected Sf9 cells assessed as dissociation constant by SPR analysis
# T3 sequence (Q9NVM4 whole entry): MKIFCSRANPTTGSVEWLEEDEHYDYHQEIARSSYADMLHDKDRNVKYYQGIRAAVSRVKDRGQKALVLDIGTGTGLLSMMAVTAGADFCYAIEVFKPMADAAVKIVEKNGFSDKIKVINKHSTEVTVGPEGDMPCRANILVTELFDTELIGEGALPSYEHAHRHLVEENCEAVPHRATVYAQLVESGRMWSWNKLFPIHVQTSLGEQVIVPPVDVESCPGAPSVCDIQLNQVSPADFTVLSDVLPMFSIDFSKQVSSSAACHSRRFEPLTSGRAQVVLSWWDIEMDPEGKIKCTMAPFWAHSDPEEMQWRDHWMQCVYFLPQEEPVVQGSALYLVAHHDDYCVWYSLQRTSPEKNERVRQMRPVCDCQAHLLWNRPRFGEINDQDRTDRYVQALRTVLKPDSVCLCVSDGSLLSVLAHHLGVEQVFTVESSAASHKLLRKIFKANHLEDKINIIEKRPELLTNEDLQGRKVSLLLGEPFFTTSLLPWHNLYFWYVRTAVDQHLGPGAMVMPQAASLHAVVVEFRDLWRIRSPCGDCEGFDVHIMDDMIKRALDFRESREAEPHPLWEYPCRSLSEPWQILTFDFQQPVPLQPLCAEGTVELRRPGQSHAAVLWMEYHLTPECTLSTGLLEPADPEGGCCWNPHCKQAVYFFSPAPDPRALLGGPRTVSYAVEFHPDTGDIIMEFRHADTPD
# CWR22R = test: Antiproliferative activity against human 22Rv1 cells assessed as reduction in cell viability incubated for 48 hrs by CCK8 assay; assay type: functional, cell-based; conditions: 22Rv1, 48 h
# PC-3 = test: Antiproliferative activity against human PC-3 cells assessed as reduction in cell viability incubated for 48 hrs by CCK8 assay; assay type: functional, cell-based; conditions: PC-3, 48 h
# [9] = target: T3, Protein arginine N-methyltransferase 7; test: Inhibition of N-terminal FLAG-tagged recombinant human PRMT7 extracted from baculovirus infected Sf9 cells using Histone H4 (1 to 21) peptide as substrate preincubated for 15 mins followed by [3H]-SAM and substrate addition and measured after 180 mins by microplate counter analysis
# DU-145 [10] = test: Antiproliferative activity against human DU-145 cells assessed as reduction in cell viability incubated for 48 hrs by CCK8 assay; assay type: functional, cell-based; conditions: DU-145, 48 h
# VCaP = test: Antiproliferative activity against human VCaP cells assessed as reduction in cell viability incubated for 48 hrs by CCK8 assay; assay type: functional, cell-based
# Chain of Protein arginine N-methyltransferase 3 (O60678 whole entry, the tested form may be a part): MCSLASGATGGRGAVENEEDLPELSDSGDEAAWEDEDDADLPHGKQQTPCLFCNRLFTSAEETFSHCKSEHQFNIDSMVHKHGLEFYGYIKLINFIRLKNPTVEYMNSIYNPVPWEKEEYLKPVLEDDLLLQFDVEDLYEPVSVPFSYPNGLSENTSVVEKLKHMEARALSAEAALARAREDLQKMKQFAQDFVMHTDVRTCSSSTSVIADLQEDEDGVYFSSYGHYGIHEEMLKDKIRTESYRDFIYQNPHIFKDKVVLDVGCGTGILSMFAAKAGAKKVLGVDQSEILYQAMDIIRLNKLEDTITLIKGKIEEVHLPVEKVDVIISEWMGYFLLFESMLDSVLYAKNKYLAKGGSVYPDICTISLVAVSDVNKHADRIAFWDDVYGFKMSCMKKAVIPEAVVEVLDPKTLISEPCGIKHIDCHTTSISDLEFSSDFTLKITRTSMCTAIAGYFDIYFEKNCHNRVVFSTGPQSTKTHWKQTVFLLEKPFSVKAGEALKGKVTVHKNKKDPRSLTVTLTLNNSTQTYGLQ
# Chain of Protein arginine N-methyltransferase 1 (Q99873 whole entry): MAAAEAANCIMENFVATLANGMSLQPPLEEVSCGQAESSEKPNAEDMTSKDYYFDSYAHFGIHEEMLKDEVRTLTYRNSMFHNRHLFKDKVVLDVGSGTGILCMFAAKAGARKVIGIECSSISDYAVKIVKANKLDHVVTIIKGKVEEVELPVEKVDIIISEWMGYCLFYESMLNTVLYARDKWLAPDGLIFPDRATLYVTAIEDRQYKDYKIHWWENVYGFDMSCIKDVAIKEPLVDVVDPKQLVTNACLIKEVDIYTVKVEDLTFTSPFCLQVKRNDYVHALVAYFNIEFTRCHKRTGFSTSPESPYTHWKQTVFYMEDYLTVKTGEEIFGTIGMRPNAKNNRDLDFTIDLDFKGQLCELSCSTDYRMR
# Chain of Protein arginine N-methyltransferase 8 (Q9NR22 whole entry, the tested form may be a part): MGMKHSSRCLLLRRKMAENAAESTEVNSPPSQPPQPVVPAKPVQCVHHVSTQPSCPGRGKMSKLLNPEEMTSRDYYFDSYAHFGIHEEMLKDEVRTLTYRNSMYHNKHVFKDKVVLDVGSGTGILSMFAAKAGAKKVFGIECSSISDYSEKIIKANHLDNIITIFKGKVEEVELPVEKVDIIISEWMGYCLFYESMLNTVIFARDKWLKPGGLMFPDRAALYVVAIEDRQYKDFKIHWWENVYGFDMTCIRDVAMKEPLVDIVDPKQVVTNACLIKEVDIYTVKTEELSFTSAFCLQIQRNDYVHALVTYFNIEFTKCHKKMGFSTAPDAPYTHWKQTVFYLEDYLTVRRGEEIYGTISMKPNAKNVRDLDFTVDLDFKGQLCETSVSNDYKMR
# Chain of Protein arginine N-methyltransferase 6 (Q96LA8 whole entry, the tested form may be a part): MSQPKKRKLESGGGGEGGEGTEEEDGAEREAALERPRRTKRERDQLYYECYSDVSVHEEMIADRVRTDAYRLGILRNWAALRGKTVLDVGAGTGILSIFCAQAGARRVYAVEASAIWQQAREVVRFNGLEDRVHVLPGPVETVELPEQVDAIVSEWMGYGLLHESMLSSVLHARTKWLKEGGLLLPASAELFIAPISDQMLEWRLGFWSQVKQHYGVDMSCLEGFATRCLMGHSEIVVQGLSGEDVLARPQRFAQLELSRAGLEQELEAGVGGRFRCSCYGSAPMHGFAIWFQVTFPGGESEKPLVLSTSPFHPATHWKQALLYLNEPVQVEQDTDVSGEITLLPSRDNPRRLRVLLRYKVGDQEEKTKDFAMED
IC50 [1] [µM],IC50 [2] [µM],IC50 [3] [µM],IC50 [4] [µM],IC50 [5] [µM],IC50 [6] [µM],Kd [8] [µM],IC50 (PC-3) [µM],IC50 [9] [µM],IC50 (DU-145 [10]) [µM],IC50 (VCaP) [µM],SMILES,inhibition in vivo at 20 mg/kg (DU-145 [7]) [%],IC50 (CWR22R) [µM]
> 100,> 100,> 100,> 100,> 100,> 100,,,,,,COc1cc(-c2nc(Nc3ccc4nc(C)cc(N)c4c3)c3sccc3n2)cc(OC)c1OC,,
,,,,,,7.12,1.13,9.91,1.47,1.66,COc1cc(-c2ncc(F)c(Nc3ccc4nc(C)cc(N)c4c3)n2)cc(OC)c1OC,40.3,1.32
,,,,,,,,26,,,COc1cc(-c2ccc3ncc(Nc4ccc(N(C)C)cc4)nc3c2)cc(OC)c1OC,,

# — ChEMBL document CHEMBL6109154, “Development of Novel PRMT7 Inhibitors for the Treatment of Prostate Cancer” (J Med Chem, 2025)
